# In patent publication US20240066043A1, “PHARMACEUTICAL CO[…] IMPROVED DISSOLUTION AND RAPID ONSET BY TARGETED STOMACH AND MUCOSAL RELEASE” (Xpira Pharmaceuticals Inc., priority 2022, published 2024):
# Like-named read-outs stand apart in the source and are kept apart here.
# Key:
# [1] = cited from earlier work
# [2] = target: T1, neocortical serotonin 5-HT2A receptors (Homo sapiens, UniProt P28223); conditions: 25 mg oral dose (Madsen et al., 2019); cited from earlier work
# T1 construct: host or cells: neocortex in vivo
# [3] = cited from earlier work; remark: listed apart in the source
# [4] = Flowability measurements (bulk density, tapped density, Hausner ratio, compressibility index)
# [5] = cited from earlier work; remark: listed apart in the source
# [6] = Particle size analysis from SEM micrographs (circle equivalent diameter); format: physicochemical; conditions: SEM micrograph FIG. 4B, unformulated psilocybin
# [7] = cited from earlier work; remark: listed apart in the source
# [8] = oral 0.224 mg/kg psilocybin (10 to 20 mg) (Hasler et al., 1997)
# [9] = oral psilocybin (Brown et al., 2017)
# T1 sequence (P28223 whole entry): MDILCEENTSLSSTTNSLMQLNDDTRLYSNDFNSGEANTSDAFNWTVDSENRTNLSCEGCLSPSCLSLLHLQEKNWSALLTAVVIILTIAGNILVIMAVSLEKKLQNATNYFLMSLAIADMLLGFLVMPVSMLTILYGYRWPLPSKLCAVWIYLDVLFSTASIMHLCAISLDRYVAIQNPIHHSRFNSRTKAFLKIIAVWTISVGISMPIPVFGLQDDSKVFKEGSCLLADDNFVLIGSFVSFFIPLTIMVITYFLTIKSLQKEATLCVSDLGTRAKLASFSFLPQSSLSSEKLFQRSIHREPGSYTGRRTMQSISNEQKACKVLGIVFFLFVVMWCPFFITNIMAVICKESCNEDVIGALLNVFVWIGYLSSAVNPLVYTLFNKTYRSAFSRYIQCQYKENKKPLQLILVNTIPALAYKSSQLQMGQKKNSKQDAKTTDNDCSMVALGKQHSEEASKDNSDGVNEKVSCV
compound,measurement,setting,value
"CN(C)CCc1c[nH]c2cccc(OP(=O)(O)O)c12 [Psilocybin, 3[2-(dimethylamino)ethyl]-1H-indol-4-yl] dihydrogen phosphate]",solubility,[1]; boiling methanol,120 parts
same,solubility,[1]; boiling water,20 parts
same,stability,[1]; dark storage at controlled room temperature,stable over extended periods
same,occupancy of neocortical serotonin 5-HT2A receptors,[2],near-maximal occupancy
same,"pharmacokinetics of psilocybin (as psilocin), dose linearity","[3]; dose range 0.3-0.6 mg/kg (Brown et al., 2017; Hasler et al., 2002)",linear
same,estimated dose-normalized bioavailability of psilocybin,"[3]; oral 0.224 mg/kg psilocybin, N=3 (Hasler et al., 1997)",52.7±20%
same,bioavailability,[3]; oral psilocybin,~50%
same,Bulk density,[4]; USP41-NF36 616,0.19 g/mL
same,Tapped density,[4]; USP41-NF36 616,0.45 g/mL
same,Compressibility index,[4]; USP41-NF36 1174,58%
same,Hausner ratio,"[4]; tap density divided by bulk density, USP41-NF36 1174",2.36
same,peak of psychoactive effects,[5]; after a dose,about two hours
same,onset of noticeable psychoactive effects,[5]; after an oral dose,within one hour
same,loss of psychoactive effects,[5]; after the dose,around six hours
same,crystal size,[6],≤ 30 μm
CN(C)CCc1c[nH]c2cccc(O)c12 [psilocin],time until psilocin detectable in plasma,[3]; after administration of the parent compound psilocybin,≤ 20 min
same,time until psilocin appears in plasma,[3]; after oral administration,≤ 15 min
same,psilocin half-life,"[3]; following oral administration of psilocybin (Brown et al., 2017)",approximately 3±1.1 hours
same,half-life of psilocin in blood,[3]; in vivo,2 to 3 h
same,average blood concentration of the active metabolite psilocin,[3]; [8],8.2 ± 2.8 ng/mL
same,time of average blood concentration of psilocin,[3]; [8],105 ± 37 min
same,time of peak psilocin levels,[3]; [9],approximately 80 minutes
same,time psilocin is detectable after administration,[3]; [9],up to 24 hours
same,share of overall clearance of psilocin through renal excretion,"[3]; urine over 24 hours after a single dose (Hasler et al., 2002)",less than 4%
same,time to maximum plasma levels,"[7]; oral, rats (Chen et al., 2011)",approximately 90 minutes
same,total volume of psilocin absorbed from the digestive tract,"[7]; psilocybin administered orally to rats (Kalberer et al., 1962)",approximately 50%
